Molecular target: AtHCT (Arabidopsis thaliana, UniProt Q9FI78)
Experiment: X-ray crystal structure
Assay type: binding

Chain of AtHCT (Q9FI78 whole entry): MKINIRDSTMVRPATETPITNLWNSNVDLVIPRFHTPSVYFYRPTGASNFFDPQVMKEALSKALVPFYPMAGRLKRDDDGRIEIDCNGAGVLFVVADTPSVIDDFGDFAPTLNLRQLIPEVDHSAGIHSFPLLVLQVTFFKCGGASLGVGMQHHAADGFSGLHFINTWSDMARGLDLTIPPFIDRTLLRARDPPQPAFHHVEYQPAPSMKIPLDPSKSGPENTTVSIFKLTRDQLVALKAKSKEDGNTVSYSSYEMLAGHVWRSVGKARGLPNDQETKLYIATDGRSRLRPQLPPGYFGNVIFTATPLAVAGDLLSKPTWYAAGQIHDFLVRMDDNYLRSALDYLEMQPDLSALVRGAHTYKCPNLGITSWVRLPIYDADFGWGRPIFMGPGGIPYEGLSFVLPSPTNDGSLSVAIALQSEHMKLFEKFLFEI

Row | Structure (SMILES) | X-ray crystal structure (soaked crystal) (soaked with p-coumaroyl CoA in water) | X-ray crystal structure (soaked crystal) (acyl acceptor site, soaked with p-coumaroylshikimate in DMSO)
1 | CC(C)(COP(=O)(O)OP(=O)(O)OC[C@H]1O[C@@H](n2cnc3c(N)ncnc32)[C@H](O)[C@@H]1OP(=O)(O)O)[C@@H](O)C(=O)NCCC(=O)NCCSC(=O)/C=C/c1ccc(O)cc1 [p-coumaroyl CoA] | apo-, p-coumaroyl CoA-bound, and p-coumaroyl shikimate-bound AtHCT | –
2 | O=C(/C=C/c1ccc(O)cc1)O[C@@H]1CC(C(=O)O)=C[C@@H](O)[C@H]1O [p-coumaroylshikimate] | – | apo-, p-coumaroyl CoA-bound, and p-coumaroyl shikimate-bound AtHCT

From publication PMC6276119 (Biochemistry, 2016)
